# Columns and labels:
# [1] = test system: human peripheral blood lymphocytes (HPBL); assay: in vitro chromosome aberration assay; type: cell-based
# [2] = Toxicokinetic evaluation in pregnant rabbits (Example 4); type: in vivo, rabbit; conditions: for Cmax / AUC(0-t): female, New Zealand White, rabbit, plasma, po; for AUC(0-t): read-out: Mean AUC0-24 in plasma of pregnant rabbits
# Experimental: The dose levels for the treated groups were 50, 125, 225, mg base/kg/day at a dose volume of 10 mL/kg. The control group received the vehicle in the same manner as the treated groups. […] Individual doses were based on the most recent body weights.
# Observations of the animals included clinical signs, body weights, food consumption, and anatomical pathology including a uterine examination. […] All fetuses were given an external, visceral, and skeletal examination.
# [3] = test system: New Zealand White rabbits; assay: Pilot prenatal developmental toxicity study in New Zealand White rabbits with non-pregnant dose range finding phase (Example 2)
# Experimental: (§1) The study was conducted in two phases: Phase A was a dose range finding tolerance study with non-pregnant rabbits, and Phase B was the pilot developmental toxicity study.
# (§2) All fetuses were given the appropriate external examination.
# [4] = target: CYP3A4, CYP2C8, CYP2D6, and UGT1A9 (Homo sapiens, UniProt P08684); assay: Metabolism in vitro; type: in vitro ADME
# [5] = test system: CYP3A4, CYP2C8, CYP2D6, and UGT1A9; assay: Metabolism in vitro; type: in vitro ADME
# OATP1B1 = target: T1, OATP1B1 (Homo sapiens, UniProt Q9Y6L6); assay: Transporter systems in vitro: OATP1B1; type: in vitro ADME; conditions: clinically relevant concentrations
# T1 sequence (Q9Y6L6 1-691): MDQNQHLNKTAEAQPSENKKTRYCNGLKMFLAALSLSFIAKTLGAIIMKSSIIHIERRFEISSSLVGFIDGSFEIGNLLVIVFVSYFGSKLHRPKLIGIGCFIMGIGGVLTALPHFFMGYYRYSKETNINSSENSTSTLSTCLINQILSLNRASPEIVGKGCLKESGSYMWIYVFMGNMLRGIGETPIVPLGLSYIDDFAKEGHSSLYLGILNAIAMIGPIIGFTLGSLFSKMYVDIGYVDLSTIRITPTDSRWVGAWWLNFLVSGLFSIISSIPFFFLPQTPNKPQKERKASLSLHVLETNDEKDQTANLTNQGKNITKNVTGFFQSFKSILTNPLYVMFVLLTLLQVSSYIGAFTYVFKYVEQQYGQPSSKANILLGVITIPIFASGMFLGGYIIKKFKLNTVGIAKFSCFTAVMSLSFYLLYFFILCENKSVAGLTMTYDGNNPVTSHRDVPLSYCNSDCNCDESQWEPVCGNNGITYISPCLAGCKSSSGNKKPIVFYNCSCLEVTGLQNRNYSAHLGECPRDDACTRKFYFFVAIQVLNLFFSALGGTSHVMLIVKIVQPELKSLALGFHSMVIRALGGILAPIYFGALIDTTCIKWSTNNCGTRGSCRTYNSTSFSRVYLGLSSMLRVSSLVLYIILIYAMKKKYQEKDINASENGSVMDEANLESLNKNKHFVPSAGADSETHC
# [6] = Toxicokinetics in pregnant New Zealand White rabbits (Example 2); type: in vivo, rabbit; conditions: female, New Zealand White, rabbit, in vivo, po; for AUC(0-t): read-out: maternal AUC0-24; for Cmax: read-out: maternal Cmax
# Experimental: as §1, §2
# [7] = 50 mg base/kg, GD 18, belumosudil 50 mg base/kg oral
# [8] = 50 mg/kg/day, GD 6, belumosudil 50 mg base/kg oral
# [9] = 125 mg/kg/day, GD 6, belumosudil 125 mg base/kg oral
# [10] = 125 mg/kg/day, GD 18, belumosudil 125 mg base/kg oral
# [11] = 225 mg/kg/day, GD 6, belumosudil 225 mg base/kg oral
# [12] = 225 mg/kg/day, GD 18, belumosudil 225 mg base/kg oral
# Sequence of CYP3A4, CYP2C8, CYP2D6, and UGT1A9 (Homo sapiens, UniProt P08684) (P08684 2-503): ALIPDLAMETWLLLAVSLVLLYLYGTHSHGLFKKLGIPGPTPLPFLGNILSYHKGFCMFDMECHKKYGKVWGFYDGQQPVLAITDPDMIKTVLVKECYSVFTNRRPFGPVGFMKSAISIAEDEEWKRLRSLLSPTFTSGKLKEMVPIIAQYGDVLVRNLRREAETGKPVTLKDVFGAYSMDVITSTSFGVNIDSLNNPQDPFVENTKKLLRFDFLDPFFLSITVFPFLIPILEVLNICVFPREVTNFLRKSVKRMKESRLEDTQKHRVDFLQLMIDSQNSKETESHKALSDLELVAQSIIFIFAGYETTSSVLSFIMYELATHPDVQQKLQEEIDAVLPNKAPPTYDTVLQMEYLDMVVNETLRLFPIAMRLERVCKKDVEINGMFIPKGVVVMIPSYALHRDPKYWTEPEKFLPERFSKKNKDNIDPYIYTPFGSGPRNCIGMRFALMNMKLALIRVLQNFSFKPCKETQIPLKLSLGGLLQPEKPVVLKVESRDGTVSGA
compound,measurement,setting,value
"CC(C)NC(=O)COc1cccc(-c2nc(Nc3ccc4[nH]ncc4c3)c3ccccc3n2)c1 [belumosudil, 2-{3-[4-(1H-indazol-5-ylamino)-2-quinazolinyl]phenoxy}-N-(propan-2-yl) acetamide]","genotoxicity, chromosome aberration assay",[1],not genotoxic
same,Cmax,[2]; [7],437 ng/mL
same,AUC(0-t),[2]; [7],1590 ng·h/mL
same,Cmax,[2]; [8],919 ng/mL
same,AUC(0-t),[2]; [8],3870 ng·h/mL
same,Cmax,[2]; [9],3030 ng/mL
same,AUC(0-t),[2]; [9],21400 ng·h/mL
same,Cmax,[2]; [10],1670 ng/mL
same,AUC(0-t),[2]; [10],9290 ng·h/mL
same,Cmax,[2]; [11],4140 ng/mL
same,AUC(0-t),[2]; [11],55700 ng·h/mL
same,Cmax,[2]; [12],2580 ng/mL
same,AUC(0-t),[2]; [12],23500 ng·h/mL
same,accumulation after multiple dosing of belumosudil,[2]; pregnant rabbits,no apparent accumulation
same,maternal toxicity,"[3]; 25 or 50 mg base/kg/day, GD 6-18",no toxicologically relevant maternal toxicity was observed
same,maternal response,"[3]; 100 and 250 mg base/kg/day, dose-dependent","reduced body weight gain/loss, decreased food consumption, clinical signs"
same,treatment-related effects,"[3]; Phase A, 300 and 400 mg base/kg/day",slight body weight losses and decreased food consumption
same,embryo or fetal toxicity,"[3]; Phase B, any dose level (25-250 mg base/kg/day)",no treatment-related embryo or fetal toxicity was apparent
same,NOAEL for developmental toxicity,[3]; pregnant rabbits,250 mg base/kg/day
same,NOAEL for maternal toxicity,[3]; pregnant rabbits,50 mg base/kg/day
same,survival,"[3]; rabbit, in vivo",not affected
same,primary metabolizing enzyme,[4],primarily metabolized by CYP3A4
same,minor metabolizing enzymes,[5],"to a lesser extent by CYP2C8, CYP2D6, and UGT1A9"
same,OATP1B1 inhibition,OATP1B1,inhibits
same,AUC(0-t),[6]; 50 mg/kg/day,2480 ng·h/mL
same,Cmax,[6]; 50 mg/kg/day,621 ng/mL
same,AUC(0-t),[6]; 250 mg/kg/day,15600 ng·h/mL
same,Cmax,[6]; 250 mg/kg/day,2100 ng/mL
